Experimental data: patent US20120316157A1, “PLANT DISEASE CONTROLLING COMPOSITION AND METHOD FOR CONTROLLING PLANT DISEASE” (SUMITOMO CHEMICAL COMPANY, LIMITED, priority 2010, published 2012)
Where two headings read alike, the source gives them in different places.

Test system: gray mold fungus (Botrytis cinerea)
Assay: Cucumber leaf disk preventive test against gray mold fungus (Test Examples 1, 2 and Reference Example)
Format: in vivo
Method: True leaf of cucumber is punched out with cork borer to 13 mm in diameter to prepare a leaf disk. In 24 well microwell plate that is dispensed with 1 ml 0.8% water agar, the leaf disk is placed such that the upper side of the leaf is in an upward direction. Thereto is added 20 micro liter a testing solution prepared by mixing a dimethyl sulfoxide solution of the present compound (racemate) and a dimethyl sulfoxide solution of ferimzone or oxolinic acid to a predetermined concentration to treat the leaf disk.
After confirming that the testing medical solution is dried, conidium of gray mold fungus (Botrytis cinerea) is suspended into potato dextrose broth (DIFCO) in a density of about 10^5 conidium/mL and is then subjected to a spray inoculation. After leaving to stand the leaf disk in a growth chamber set up at 15° C. for four days, an onset area on the leaf is measured and then calculated an onset area rate (hereinafter, referred to as an onset area rate of treated group).
The same operation is carried out with 20 micro liter water instead of 20 micro liter a testing medicine solution to calculate an onset area rate (hereinafter, referred to an onset area rate of non-treated group).
A preventive value is calculated from the above onset area rate of treated group and the onset area rate of non-treated group by the following equation:
Preventive value(%)=100×(A−B)/A
A: an onset area rate of treated group
B: an onset area rate of non-treated group
The same operations as described in Test Example 1 are carried out with fenamidone, acibenzolar-5-methyl, amisulbrom, dazomet, diclomezine, famoxadone, fenoxanil, probenazole, proquinazid, pyroquilon, quinoxyfen, tricyclazole, isoprothiolane or tiadinil instead of ferimzone or oxolinic acid, so as to calculate respective preventive values.
Also for comparison, the same operations as described in Test Example 1 are carried out with the exception that the testing medicine solution is substituted with a predetermined concentration of each dimethyl sulfoxide solution of the present compound (racemate), fenamidone, acibenzolar-5-methyl, amisulbrom, dazomet, diclomezine, famoxadone, fenoxanil, probenazole, proquinazid, pyroquilon, quinoxyfen, tricyclazole, isoprothiolane, or tiadinil, so as to calculate respective preventive values.
For comparison, the same operations as described in Test Example 1 are carried out with the exception that the testing medicine solution is substituted with a predetermined concentration of each dimethyl sulfoxide solution of ferimzone or oxolinic acid, so as to calculate a preventive value.

[1] = Botrytis cinerea, foliar, 96 h, read-out: preventive value (%), heterocyclic compound alone, 0.5 ppm, 15° C., four days
[2] = Botrytis cinerea, foliar, 96 h, read-out: preventive value (%), heterocyclic compound alone, 5.0 ppm, 15° C., four days
[3] = Botrytis cinerea, foliar, 96 h, heterocyclic compound alone, 0.5 ppm, 15° C., four days, read-out: preventive value (%)
[4] = Botrytis cinerea, foliar, 96 h, heterocyclic compound alone, 5.0 ppm, 15° C., four days, read-out: preventive value (%)
[5] = heterocyclic compound alone, 0.5 ppm, 15° C., four days
[6] = heterocyclic compound alone, 5.0 ppm, 15° C., four days

CN1CSC(=S)N(C)C1 [dazomet]
pest or weed control at 0.5 ppm [1]: 10%
pest or weed control at 5 ppm [2]: 20%

CSC1=N[C@@](C)(c2ccccc2)C(=O)N1Nc1ccccc1 [fenamidone]
pest or weed control at 0.5 ppm [3]: 5%
pest or weed control at 5 ppm [4]: 10%

CCCOc1nc2ccc(I)cc2c(=O)n1CCC [proquinazid]
preventive value (%) [5]: 10%
preventive value (%) [6]: 15%

C=CCOC1=NS(=O)(=O)c2ccccc21 [probenazole]
pest or weed control at 0.5 ppm [3]: 10%
pest or weed control at 5 ppm [4]: 25%

CNC(=O)C(OC)c1ccccc1COc1cc(C)ccc1C (racemic) [the present amide compound]
pest or weed control at 1 ppm (Botrytis cinerea, foliar, 96 h, the present amide compound alone, 1.0 ppm, 15° C., four days): 46%
pest or weed control at 2.5 ppm (Botrytis cinerea, foliar, 96 h, the present amide compound alone, 2.5 ppm, 15° C., four days): 56%

Cc1ccc(NC(=O)c2snnc2C)cc1Cl [tiadinil]
pest or weed control at 0.5 ppm [3]: 10%
pest or weed control at 5 ppm [4]: 25%

C[C@@]1(c2ccc(Oc3ccccc3)cc2)OC(=O)N(Nc2ccccc2)C1=O (racemic) [famoxadone]
pest or weed control at 0.5 ppm [3]: 10%
pest or weed control at 5 ppm [4]: 15%

CC(Oc1ccc(Cl)cc1Cl)C(=O)NC(C)(C#N)C(C)C (centres unmarked) [fenoxanil]
preventive value (%) [5]: 10%
preventive value (%) [6]: 15%

Fc1ccc(Oc2ccnc3cc(Cl)cc(Cl)c23)cc1 [quinoxyfen]
pest or weed control at 0.5 ppm [3]: 10%
pest or weed control at 5 ppm [4]: 15%

CSC(=O)c1cccc2nnsc12 [acibenzolar-S-methyl]
preventive value (%) [5]: 15%
preventive value (%) [6]: 25%

C/C(=N/Nc1nc(C)cc(C)n1)c1ccccc1C [ferimzone]
pest or weed control at 0.5 ppm [1]: 10%
pest or weed control at 5 ppm [2]: 15%

Cc1cccc2sc3nncn3c12 [tricyclazole]
pest or weed control at 0.5 ppm [3]: 10%
pest or weed control at 5 ppm [4]: 15%

CC(C)OC(=O)C(C(=O)OC(C)C)=C1SCCS1 [isoprothiolane]
pest or weed control at 0.5 ppm [1]: 10%
pest or weed control at 5 ppm [2]: 15%

O=C1CCc2cccc3c2N1CC3 [pyroquilon]
pest or weed control at 0.5 ppm [1]: 10%
pest or weed control at 5 ppm [2]: 15%

Cc1c(Cl)cc(-c2ccc(=O)[nH]n2)cc1Cl [diclomezine]
pest or weed control at 0.5 ppm [3]: 10%
pest or weed control at 5 ppm [4]: 15%

Cc1c(Br)c2ccc(F)cc2n1S(=O)(=O)c1ncn(S(=O)(=O)N(C)C)n1 [amisulbrom]
preventive value (%) [5]: 10%
preventive value (%) [6]: 15%
